Experiment: xn = mol fraction of the nth substance listed
Conditions: 100 kPa

CCOC(=O)OCC + CCCC[N+]1(C)CCCC1.O=S(=O)([N-]S(=O)(=O)C(F)(F)F)C(F)(F)F
x2 = 0
Conditions	viscosity [mPa·s]
293.15 K	0.8
298.15 K	0.75
303.15 K	0.7
308.15 K	0.65
313.15 K	0.61
318.15 K	0.58

CCCC[N+]1(C)CCCC1.O=S(=O)([N-]S(=O)(=O)C(F)(F)F)C(F)(F)F + CCOC(=O)OCC
Conditions	electrical conductivity [S/m]	viscosity [mPa·s]
293.15 K, x1 = 0.1506	0.443	2.76
293.15 K, x1 = 0.25	0.584	–
293.15 K, x1 = 0.2973	0.613	6.62
293.15 K, x1 = 0.349	0.608	8.69
293.15 K, x1 = 0.4	0.531	11.2
293.15 K, x1 = 0.6002	0.34	29.01
293.15 K, x1 = 0.6985	0.288	41
293.15 K, x1 = 0.8006	0.254	55.9
293.15 K, x1 = 1	0.216	98
298.15 K, x1 = 0.1001	0.372	1.65
298.15 K, x1 = 0.1506	0.494	2.49
298.15 K, x1 = 0.2	0.586	3.49
298.15 K, x1 = 0.25	0.646	–
298.15 K, x1 = 0.2973	0.701	5.86
298.15 K, x1 = 0.349	0.693	7.74
298.15 K, x1 = 0.4	0.622	9.95
298.15 K, x1 = 0.4998	0.514	15.45
298.15 K, x1 = 0.6002	0.425	24.22
298.15 K, x1 = 0.6985	0.365	34.1
298.15 K, x1 = 0.8006	0.329	46
298.15 K, x1 = 0.8934	0.3	58.6
298.15 K, x1 = 1	0.275	76.6
303.15 K, x1 = 0.1001	0.401	1.5
303.15 K, x1 = 0.1506	0.543	2.26
303.15 K, x1 = 0.2973	0.785	5.21
303.15 K, x1 = 0.349	0.782	7
303.15 K, x1 = 0.4	0.714	8.78
303.15 K, x1 = 0.4998	0.601	13.25
303.15 K, x1 = 0.6002	0.509	20.02
303.15 K, x1 = 0.6985	0.438	28.53
303.15 K, x1 = 0.8006	0.395	38
303.15 K, x1 = 0.8934	0.371	46.9
303.15 K, x1 = 1	0.34	61.6
308.15 K, x1 = 0.1001	0.436	1.35
308.15 K, x1 = 0.1506	0.591	2.03
308.15 K, x1 = 0.2	0.703	2.85
308.15 K, x1 = 0.25	0.8	–
308.15 K, x1 = 0.2973	0.876	4.79
308.15 K, x1 = 0.349	0.867	6.3
308.15 K, x1 = 0.4	0.803	7.89
308.15 K, x1 = 0.6002	0.612	17
308.15 K, x1 = 0.6985	0.534	23.82
308.15 K, x1 = 0.8006	0.485	32.02
308.15 K, x1 = 1	0.411	50.8
313.15 K, x1 = 0.1506	0.637	1.83
313.15 K, x1 = 0.2	0.766	2.56
313.15 K, x1 = 0.2973	0.968	4.33
313.15 K, x1 = 0.349	0.957	5.76
313.15 K, x1 = 0.4	0.908	7.11
313.15 K, x1 = 0.4998	0.804	10.46
313.15 K, x1 = 0.6002	0.73	14.69
313.15 K, x1 = 0.6985	0.649	19.99
313.15 K, x1 = 0.8006	0.588	26
313.15 K, x1 = 0.8934	0.535	31.7
313.15 K, x1 = 1	0.491	41.6
318.15 K, x1 = 0.1001	0.501	1.09
318.15 K, x1 = 0.1506	0.684	1.64
318.15 K, x1 = 0.2	0.83	2.28
318.15 K, x1 = 0.25	1	–
318.15 K, x1 = 0.2973	1.05	3.9
318.15 K, x1 = 0.349	1.05	5.21
318.15 K, x1 = 0.4	1	6.45
318.15 K, x1 = 0.4998	0.903	9.01
318.15 K, x1 = 0.6002	0.831	13
318.15 K, x1 = 0.6985	0.746	17.01
318.15 K, x1 = 0.8006	0.673	22
318.15 K, x1 = 0.8934	0.62	26.75
318.15 K, x1 = 1	0.581	34.6
323.15 K, x1 = 0.1506	0.742	1.46
323.15 K, x1 = 0.2	0.901	2.05
323.15 K, x1 = 0.25	1.1	–
323.15 K, x1 = 0.2973	1.14	3.52
323.15 K, x1 = 0.349	1.15	4.63
323.15 K, x1 = 0.4	1.1	5.79
323.15 K, x1 = 0.4998	1.02	8.05
323.15 K, x1 = 0.6002	0.935	11.01
323.15 K, x1 = 0.6985	0.865	14.4
323.15 K, x1 = 0.8934	0.745	22.8
323.15 K, x1 = 1	0.681	29.46

Reference: a compilation of properties of binary mixtures (doi:10.1021/acs.jced.9b00738)
